“And” between values parts separate entries of the source, which are not always exact repeats. Equal entries are not always repeated. Toxic doses and inconclusive results are not listed.
System: C57BL/6 mice, intracerebral ependymoblastoma, median survival T/C
Test: NCI In Vivo Anticancer Drug Screen. Data for tumor model Ependymoblastoma (intracerebral) in C57BL/6 mice
Details: endpoint: median survival time, higher = longer survival
Procedure: The antitumor activity of compounds was measured in mice bearing transplantable tumors. Survival or tumor size were measured and the results are expressed as the measurement made in the treated group (T) divided by the measurement made in the vehicle treated control group (C). The tumor model used in this assay is Ependymoblastoma (intracerebral) in C57BL/6 mice

[1] = dose: 90.0 mg/kg/injection, schedule: Q01DX005 (ip), vehicle: saline with Tween-80
[2] = dose: 8.0 mg/kg/injection, schedule: Q01DX005 (ip), vehicle: saline
[3] = dose: 8.0 mg/kg/injection, schedule: Q01DX005 (ip), vehicle: saline with Tween-80
[4] = dose: 16.0 mg/kg/injection, schedule: Q01DX005 (ip), vehicle: saline with Tween-80
[5] = dose: 32.0 mg/kg/injection, schedule: Q01DX005 (ip), vehicle: saline with Tween-80
[6] = dose: 64.0 mg/kg/injection, schedule: Q01DX005 (ip), vehicle: saline with Tween-80
[7] = dose: 128.0 mg/kg/injection, schedule: Q01DX005 (ip), vehicle: saline with Tween-80

## CCC1CC2CC(c3cc4c(cc3OC)N(C)C3C(O)(C(=O)OC)C(OC(C)=O)C5(CC)C=CCN6CCC43C65)c3[nH]c4ccccc4c3CCN(C1)C2 (stereo not given)
dose: 0.05 mg/kg/injection, schedule: Q01DX005 (ip), vehicle: saline
  T/C: 108 % of control
dose: 0.1 mg/kg/injection, schedule: Q01DX005 (ip), vehicle: saline
  T/C: 112 % of control
dose: 0.2 mg/kg/injection, schedule: Q01DX005 (ip), vehicle: saline
  T/C: 97 % of control
dose: 0.4 mg/kg/injection, schedule: Q01DX005 (ip), vehicle: saline
  T/C: 119 % of control
dose: 0.8 mg/kg/injection, schedule: Q01DX005 (ip), vehicle: saline
  T/C: 107 % of control
dose: 3.2 mg/kg/injection, schedule: Q01DX005 (ip), vehicle: saline
  T/C: 96 % of control
dose: 6.4 mg/kg/injection, schedule: Q01DX005 (ip), vehicle: saline
  T/C: 105 % of control
dose: 12.8 mg/kg/injection, schedule: Q01DX005 (ip), vehicle: saline
  T/C: 102 % of control

## O=C(N[C@H](CO)[C@H](O)c1ccc([N+](=O)[O-])cc1)C(Cl)Cl
[1]
  T/C: 97 % of control
dose: 180.0 mg/kg/injection, schedule: Q01DX005 (ip), vehicle: saline with Tween-80
  T/C: 95 % of control and 100 % of control
dose: 360.0 mg/kg/injection, schedule: Q01DX005 (ip), vehicle: saline with Tween-80
  T/C: 87 % of control and 101 % of control
dose: 720.0 mg/kg/injection, schedule: Q01DX005 (ip), vehicle: saline with Tween-80
  T/C: 98 % of control

## O=C1NC(=O)C2(CCc3ccc(N(CCCl)CCCl)cc32)N1 (stereo not given)
dose: 0.75 mg/kg/injection, schedule: Q01DX009 (ip), vehicle: Klucel (hydroxypropylcellulose) (HPC)
  T/C: 93 % of control
dose: 1.5 mg/kg/injection, schedule: Q01DX009 (ip), vehicle: Klucel (hydroxypropylcellulose) (HPC)
  T/C: 101 % of control
dose: 3.0 mg/kg/injection, schedule: Q01DX009 (ip), vehicle: Klucel (hydroxypropylcellulose) (HPC)
  T/C: 115 % of control
dose: 6.0 mg/kg/injection, schedule: Q01DX009 (ip), vehicle: Klucel (hydroxypropylcellulose) (HPC)
  T/C: 98 % of control
dose: 6.25 mg/kg/injection, schedule: Q01DX005 (ip), vehicle: Klucel (hydroxypropylcellulose) (HPC)
  T/C: 114 % of control
dose: 12.0 mg/kg/injection, schedule: Q01DX009 (ip), vehicle: Klucel (hydroxypropylcellulose) (HPC)
  T/C: 91 % of control
dose: 12.5 mg/kg/injection, schedule: Q01DX005 (ip), vehicle: Klucel (hydroxypropylcellulose) (HPC)
  T/C: 115 % of control
dose: 25.0 mg/kg/injection, schedule: Q01DX005 (ip), vehicle: Klucel (hydroxypropylcellulose) (HPC)
  T/C: 102 % of control

## N[C@@H](Cc1ccc(N(CCCl)CCCl)cc1)C(=O)O
dose: 0.5 mg/kg/injection, schedule: Q01DX001 (ip), vehicle: saline
  T/C: 103 % of control
dose: 0.5 mg/kg/injection, schedule: Q01DX005 (ip), vehicle: saline
  T/C: 106 % of control and 110 % of control
dose: 1.0 mg/kg/injection, schedule: Q01DX001 (ip), vehicle: saline
  T/C: 88 % of control
dose: 1.0 mg/kg/injection, schedule: Q01DX005 (ip), vehicle: saline
  T/C: 96 % of control and 109 % of control and 110 % of control
dose: 2.0 mg/kg/injection, schedule: Q01DX001 (ip), vehicle: saline
  T/C: 102 % of control
dose: 2.0 mg/kg/injection, schedule: Q01DX005 (ip), vehicle: saline
  T/C: 98 % of control and 108 % of control
dose: 4.0 mg/kg/injection, schedule: Q01DX005 (ip), vehicle: saline
  T/C: 111 % of control
dose: 8.0 mg/kg/injection, schedule: Q01DX001 (ip), vehicle: saline
  T/C: 119 % of control
[2]
  T/C: 100 % of control

## NC(=O)N(CCCl)N=O
dose: 0.5 mg/kg/injection, schedule: Q01DX005 (ip), vehicle: saline + alcohol
  T/C: 118 % of control
dose: 2.0 mg/kg/injection, schedule: Q01DX005 (ip), vehicle: saline + alcohol
  T/C: 276 % of control

## O=c1[nH]c(=O)n([C@H]2CCCO2)cc1F
dose: 8.0 mg/kg/injection, schedule: Q01DX005 (ip), vehicle: Klucel (hydroxypropylcellulose) (HPC)
  T/C: 97 % of control and 98 % of control
[3]
  T/C: 90 % of control and 97 % of control
[2]
  T/C: 101 % of control and 111 % of control
dose: 16.0 mg/kg/injection, schedule: Q01DX005 (ip), vehicle: Klucel (hydroxypropylcellulose) (HPC)
  T/C: 100 % of control and 106 % of control and 112 % of control
[4]
  T/C: 103 % of control and 105 % of control
dose: 16.0 mg/kg/injection, schedule: Q01DX005 (ip), vehicle: saline
  T/C: 100 % of control and 110 % of control
dose: 32.0 mg/kg/injection, schedule: Q01DX005 (ip), vehicle: Klucel (hydroxypropylcellulose) (HPC)
  T/C: 98 % of control and 109 % of control and 114 % of control
[5]
  T/C: 102 % of control and 106 % of control
dose: 32.0 mg/kg/injection, schedule: Q01DX005 (ip), vehicle: saline
  T/C: 102 % of control and 109 % of control (2×)
dose: 64.0 mg/kg/injection, schedule: Q01DX005 (ip), vehicle: Klucel (hydroxypropylcellulose) (HPC)
  T/C: 100 % of control and 103 % of control and 108 % of control
[6]
  T/C: 104 % of control and 120 % of control
dose: 64.0 mg/kg/injection, schedule: Q01DX005 (ip), vehicle: saline
  T/C: 98 % of control and 111 % of control (2×)
dose: 128.0 mg/kg/injection, schedule: Q01DX005 (ip), vehicle: Klucel (hydroxypropylcellulose) (HPC)
  T/C: 112 % of control and 117 % of control
[7]
  T/C: 111 % of control and 114 % of control
dose: 128.0 mg/kg/injection, schedule: Q01DX005 (ip), vehicle: saline
  T/C: 102 % of control and 113 % of control and 119 % of control
dose: 256.0 mg/kg/injection, schedule: Q01DX005 (ip), vehicle: saline
  T/C: 106 % of control and 121 % of control

## N=C(N)SCc1c2ccccc2c(CSC(=N)N)c2ccccc12
dose: 2.5 mg/kg/injection, schedule: Q01DX005 (ip), vehicle: Klucel (hydroxypropylcellulose) (HPC)
  T/C: 99 % of control
dose: 5.0 mg/kg/injection, schedule: Q01DX005 (ip), vehicle: Klucel (hydroxypropylcellulose) (HPC)
  T/C: 100 % of control
dose: 10.0 mg/kg/injection, schedule: Q01DX005 (ip), vehicle: Klucel (hydroxypropylcellulose) (HPC)
  T/C: 90 % of control
dose: 20.0 mg/kg/injection, schedule: Q01DX005 (ip), vehicle: Klucel (hydroxypropylcellulose) (HPC)
  T/C: 102 % of control

## O=C(CCBr)N1CCN(C(=O)CCBr)CC1
dose: 2.5 mg/kg/injection, schedule: Q01DX005 (ip), vehicle: saline with Tween-80
  T/C: 98 % of control
dose: 5.0 mg/kg/injection, schedule: Q01DX005 (ip), vehicle: saline with Tween-80
  T/C: 103 % of control
dose: 10.0 mg/kg/injection, schedule: Q01DX005 (ip), vehicle: saline with Tween-80
  T/C: 92 % of control
dose: 20.0 mg/kg/injection, schedule: Q01DX005 (ip), vehicle: saline with Tween-80
  T/C: 105 % of control
dose: 40.0 mg/kg/injection, schedule: Q01DX005 (ip), vehicle: saline with Tween-80
  T/C: 105 % of control
dose: 80.0 mg/kg/injection, schedule: Q01DX005 (ip), vehicle: saline with Tween-80
  T/C: 111 % of control

## ClC(Cl)=C(Cl)Cl
dose: 22.0 mg/kg/injection, schedule: Q01DX005 (ip), vehicle: saline with Tween-80
  T/C: 111 % of control
dose: 45.0 mg/kg/injection, schedule: Q01DX005 (ip), vehicle: saline with Tween-80
  T/C: 90 % of control
[1]
  T/C: 88 % of control and 92 % of control

## C[C@]1(O)CC[C@H]2[C@@H]3CCC4=CC(=O)CC[C@]4(C)[C@@]3(F)[C@@H](O)C[C@@]21C
[3]
  T/C: 94 % of control and 99 % of control
[4]
  T/C: 93 % of control and 104 % of control
[5]
  T/C: 102 % of control and 105 % of control
[6]
  T/C: 93 % of control and 96 % of control
[7]
  T/C: 93 % of control and 96 % of control
dose: 256.0 mg/kg/injection, schedule: Q01DX005 (ip), vehicle: saline with Tween-80
  T/C: 94 % of control and 100 % of control
dose: 512.0 mg/kg/injection, schedule: Q01DX005 (ip), vehicle: saline with Tween-80
  T/C: 93 % of control and 103 % of control

## CCCCCCCCCCCCCC(=O)OC12CC(C)C3(O)C(C=C(CO)C(O)C4(O)C(=O)C(C)=CC43)C1C2(C)C (stereo not given)
dose: 0.13 mg/kg/injection, schedule: Q01DX005 (ip), vehicle: acetone
  T/C: 100 % of control
dose: 0.25 mg/kg/injection, schedule: Q01DX005 (ip), vehicle: acetone
  T/C: 97 % of control
dose: 0.5 mg/kg/injection, schedule: Q01DX005 (ip), vehicle: acetone
  T/C: 86 % of control

From PubChem BioAssay AID222 (DTP/NCI, 2004)
